The target in test [1] is T1, human recombinant kinase full-length wildtype AKT1 (Homo sapiens, UniProt P31749).
T1 construct: Purified human recombinant kinase full-length wildtype AKT1 was expressed in insect cells; made in house; host or cells: insect cells
As to the kind of experiment: AKT1 kinase assay (wildtype, TR-FRET, Lance). As to conditions: 0.6 nM wildtype AKT1, 50 nM Ulight-CREBtide, either 50 μM ATP or 2 mM ATP (not specified which), 60 min at RT. The test is classed as biochemical. In short, it runs like this:
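Insect-cell-expressed AKT1, activated in vitro by PDPK1, was used at 0.6 nM with 50 nM Ulight-CREBtide and 50 μM or 2 mM ATP in 50 mM HEPES pH 7.5, 1% DMSO, over a 10-point dose response.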
A general note: Time-resolved FRET reads energy transfer from a long-lived donor to a nearby acceptor.

Test [2] has as its target T2, human recombinant kinase full-length AKT1 E17K (Homo sapiens, UniProt P31749, E17K).
T2 construct: Purified human recombinant kinase full-length AKT1 E17K was expressed in insect cells; made in house; host or cells: insect cells
In words: AKT1 E17K kinase assay (TR-FRET, Lance). As to conditions: 0.6 nM AKT1 E17K, 50 nM Ulight-CREBtide, either 50 μM ATP or 2 mM ATP (not specified which), 60 min at RT. The test is classed as biochemical. In a few lines:
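Full-length human AKT1 E17K (insect cell-expressed, PDPK1-activated; 0.6 nM) with 50 nM ULight-CREBtide in HEPES pH 7.5 with MgCl2 and DTT. ATP at 50 μM or 2 mM, 1% DMSO, 10-point dose response, 60 min at RT.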

Where only a bound is given, the exact number is not on record here.

By IC50 is commonly meant the point on the concentration scale where inhibition reaches its midpoint.

T1 sequence (P31749 whole entry): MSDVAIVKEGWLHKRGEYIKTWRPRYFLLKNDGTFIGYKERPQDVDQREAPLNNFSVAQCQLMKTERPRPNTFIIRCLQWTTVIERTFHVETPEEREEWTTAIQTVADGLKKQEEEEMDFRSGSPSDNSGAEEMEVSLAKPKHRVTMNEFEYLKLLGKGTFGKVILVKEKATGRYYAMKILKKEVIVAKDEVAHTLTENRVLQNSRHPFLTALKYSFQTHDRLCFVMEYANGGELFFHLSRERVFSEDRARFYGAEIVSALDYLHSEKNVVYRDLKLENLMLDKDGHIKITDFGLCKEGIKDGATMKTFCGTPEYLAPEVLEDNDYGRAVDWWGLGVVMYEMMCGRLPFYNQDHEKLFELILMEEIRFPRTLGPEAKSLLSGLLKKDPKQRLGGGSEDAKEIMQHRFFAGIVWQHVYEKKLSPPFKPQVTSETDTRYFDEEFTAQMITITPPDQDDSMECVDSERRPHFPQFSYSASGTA
T2 sequence (P31749 whole entry E17K): as the sequence (P31749 whole entry) above, with E17K counted along it

Take `Cc1nc(NC(=O)c2cc(F)c(C(=O)O)cc2F)ccc1-n1c(-c2cccnc2N)nc2ccc(-c3ccccc3)nc21` [Compound 147]: the figures for the IC50 in test [1] and in test [2] were less than 500 nM and 50 to 200 nM, respectively.
In the same order, the values of `Nc1ncccc1-c1nc2cc(-c3cccnc3)cnc2n1-c1ccc(CNC(=O)c2ccc(CCC(=O)O)cc2)cc1` [Compound 92, 3-(4-((4-(2-(2-aminopyridin-3-yl)-6-(pyridin-3-yl)-3H-imidazo[4,5-b]pyridin-3-yl)benzyl)carbamoyl)phenyl) propanoic acid] are less than 500 nM and 200 to 500 nM.
In the same order, the values of `COC(=O)CCc1ccc(C(=O)NCc2ccc(-n3c(-c4cccnc4N)nc4cc(-c5cccnc5)cnc43)cc2)cc1` [Compound 91, methyl 3-(4-((4-(2-(2-aminopyridin-3-yl)-6-(pyridin-3-yl)-3H-imidazo[4,5-b]pyridin-3-yl)benzyl)carbamoyl)phenyl) propanoate] are less than 500 nM and greater than 500 nM.
In the same order, the values of `Nc1ncccc1-c1nc2ccc(-c3ccccc3)nc2n1-c1ccc(NC(=O)c2cccc(CC(=O)O)c2)cc1` [Compound 56, 2-(3-((4-(2-(2-aminopyridin-3-yl)-5-phenyl-3H-imidazo[4,5-b]pyridin-3-yl)phenyl)carbamoyl)phenyl)acetic acid] are less than 500 nM and less than 50 nM.
For `NC(=O)Cc1cccc(C(=O)NCc2ccc(-n3c(-c4cccnc4N)nc4ccc(-c5ccccc5)nc43)cc2)c1` [Compound 43, 3-(2-amino-2-oxoethyl)-N-(4-(2-(2-aminopyridin-3-yl)-5-phenyl-3H-imidazo[4,5-b]pyridin-3-yl)benzyl)benzamide], the IC50 in test [1] is less than 500 nM; in test [2], greater than 500 nM.
In the same order, the values of `CC(C(=O)O)c1cccc(C(=O)NCc2ccc(-n3c(-c4cccnc4N)nc4ccc(-c5ccccc5)nc43)cc2)n1` (stereo not shown) [Compound 38, 2-(6-((4-(2-(2-aminopyridin-3-yl)-5-phenyl-3H-imidazo[4,5-b]pyridin-3-yl)benzyl)carbamoyl)pyridin-2-yl) propanoic acid] are greater than 500 nM and greater than 500 nM.
In the same order, the values of `COC(=O)Cc1cccc(C(=O)NCc2ccc(-n3c(-c4cccnc4N)nc4cccnc43)cc2)c1` [Compound 100, methyl 2-(3-((4-(2-(2-aminopyridin-3-yl)-3H-imidazo[4,5-b]pyridin-3-yl)benzyl)carbamoyl)phenyl)acetate] are greater than 500 nM and greater than 500 nM.
In the same order, the values of `Cc1cc(C(=O)Nc2ccc(-n3c(-c4cccnc4N)nc4ccc(-c5ccccc5)nc43)c(C)n2)c(C)cc1C(=O)O` [Compound 155] are less than 500 nM and greater than 500 nM.
`Cc1cc(C(=O)Nc2ccc(-n3c(-c4cccnc4N)nc4ccc(-c5ccccc5)nc43)nc2C)ccc1C(=O)O` [Compound 181, 4-((6-(2-(2-aminopyridin-3-yl)-5-phenyl-3H-imidazo[4,5-b]pyridin-3-yl)-2-methylpyridin-3-yl)carbamoyl)-2-methylbenzoic acid]: the IC50 in test [1] and in test [2] was greater than 500 nM each time.
`Cc1cc(C(=O)O)ccc1C(=O)N1CC(c2ccc(-n3c(-c4cccnc4N)nc4ccc(-c5ccccc5)nc43)cc2)C1` [Compound 75, 4-(3-(4-(2-(2-aminopyridin-3-yl)-5-phenyl-3H-imidazo[4,5-b]pyridin-3-yl)phenyl)azetidine-1-carbonyl)-3-methylbenzoic acid]: the IC50 is less than 500 nM in test [1] and less than 50 nM in test [2].
As for `COC(=O)c1cccc(C(=O)N2CC(c3ccc(-n4c(-c5cccnc5N)nc5ccc(-c6ccccc6)nc54)cc3)C2)c1` [Compound 71, methyl 3-(3-(4-(2-(2-aminopyridin-3-yl)-5-phenyl-3H-imidazo[4,5-b]pyridin-3-yl)phenyl)azetidine-1-carbonyl)benzoate], the IC50 is less than 500 nM in test [1] and 50 to 200 nM in test [2].
In the same order, the values of `Nc1ncccc1-c1nc2ccc(-c3ccccc3)nc2n1-c1ccc(NC(=O)c2cccc(CCC(=O)O)c2)cc1` [Compound 57, 3-(3-((4-(2-(2-aminopyridin-3-yl)-5-phenyl-3H-imidazo[4,5-b]pyridin-3-yl)phenyl)carbamoyl)phenyl) propanoic acid] are less than 500 nM and less than 50 nM.
In the same order, the values of `Cc1c(C(=O)O)cccc1C(=O)N1CC(c2ccc(-n3c(-c4cccnc4N)nc4ccc(-c5ccccc5)nc43)cc2)C1` [Compound 77, 3-(3-(4-(2-(2-aminopyridin-3-yl)-5-phenyl-3H-imidazo[4,5-b]pyridin-3-yl)phenyl)azetidine-1-carbonyl)-2-methylbenzoic acid] are less than 500 nM and 50 to 200 nM.
In the same order, the values of `Cc1cc(C(=O)O)ccc1C(=O)Nc1ccc(-n2c(-c3cccnc3N)nc3ccc(-c4ccccc4)nc32)cn1` [Compound 63, 4-[[5-[2-(2-amino-3-pyridyl)-5-phenyl-imidazo[4,5-b]pyridin-3-yl]-2-pyridyl]carbamoyl]-3-methyl-benzoic acid] are less than 500 nM and 200 to 500 nM.
Turning to `COC(=O)Cc1cccc(C(=O)NCc2ccc(-n3c(-c4cccnc4N)nc4cc(-c5cccnc5)cnc43)cc2)c1` [Compound 89, methyl 2-(3-((4-(2-(2-aminopyridin-3-yl)-6-(pyridin-3-yl)-3H-imidazo[4,5-b]pyridin-3-yl)benzyl)carbamoyl)phenyl)acetate], the IC50 in test [1] is less than 500 nM; in test [2], greater than 500 nM.
With `Nc1ncccc1-c1nc2ccc(-c3ccccc3)nc2n1-c1ccc(C(=O)Nc2ccc(C(=O)O)cc2F)nc1` [Compound 179, 4-(5-(2-(2-aminopyridin-3-yl)-5-phenyl-3H-imidazo[4,5-b]pyridin-3-yl)picolinamido)-3-fluorobenzoic acid], the half-inhibitory concentration (IC50) in test [1] is less than 500 nM; in test [2], 200 to 500 nM.
In the same order, the values of `Nc1ncccc1-c1nc2cc(-c3cccnc3)cnc2n1-c1ccc(CNC(=O)c2cccc(CCC(=O)O)c2)cc1` [Compound 94, 3-(3-((4-(2-(2-aminopyridin-3-yl)-6-(pyridin-3-yl)-3H-imidazo[4,5-b]pyridin-3-yl)benzyl)carbamoyl)phenyl) propanoic acid] are less than 500 nM and greater than 500 nM.
In the case of `Nc1ncccc1-c1nc2ccc(-c3ccccc3)nc2n1-c1ccc(CNC(=O)c2cccc(CC(=O)O)c2F)cc1` [Compound 34, 2-(3-((4-(2-(2-aminopyridin-3-yl)-5-phenyl-3H-imidazo[4,5-b]pyridin-3-yl)benzyl)carbamoyl)-2-fluorophenyl)acetic acid], the results for the IC50 in test [1] and in test [2] were less than 500 nM and 200 to 500 nM, respectively.
In the same order, the values of `COC(=O)CCc1cccc(C(=O)NCc2ccc(-n3c(-c4cccnc4N)nc4cc(-c5cccnc5)cnc43)cc2)c1` [Compound 93, methyl 3-(3-((4-(2-(2-aminopyridin-3-yl)-6-(pyridin-3-yl)-3H-imidazo[4,5-b]pyridin-3-yl)benzyl)carbamoyl)phenyl) propanoate] are less than 500 nM and greater than 500 nM.
Regarding `CC(C(=O)O)c1cccc(C(=O)NCc2ccc(-n3c(-c4cccnc4N)nc4ccc(-c5ccccc5)nc43)cc2)c1F` (stereo not shown) [Compound 37, 2-(3-((4-(2-(2-aminopyridin-3-yl)-5-phenyl-3H-imidazo[4,5-b]pyridin-3-yl)benzyl)carbamoyl)-2-fluorophenyl) propanoic acid], the IC50 in test [1] is less than 500 nM; in test [2] it was 200 to 500 nM.

These data come from patent US20260200919A1, “SUBSTITUTED AMINOPYRIDINE COMPOUNDS AND METHODS OF TREATING DISEASE USING SAME” (Atavistik Bio, Inc., priority 2023, published 2026).
